Among the data in PMC5570900, “Exploiting a novel conformational switch to control innate immunity mediated by complement protein C3a” (Nature Communications, 2017) are EC50 values, retold here.

Each structure is given as a SMILES string.

This assay addresses T1, C3aR (Homo sapiens, UniProt Q16581).
T1 sequence (Q16581 1-482): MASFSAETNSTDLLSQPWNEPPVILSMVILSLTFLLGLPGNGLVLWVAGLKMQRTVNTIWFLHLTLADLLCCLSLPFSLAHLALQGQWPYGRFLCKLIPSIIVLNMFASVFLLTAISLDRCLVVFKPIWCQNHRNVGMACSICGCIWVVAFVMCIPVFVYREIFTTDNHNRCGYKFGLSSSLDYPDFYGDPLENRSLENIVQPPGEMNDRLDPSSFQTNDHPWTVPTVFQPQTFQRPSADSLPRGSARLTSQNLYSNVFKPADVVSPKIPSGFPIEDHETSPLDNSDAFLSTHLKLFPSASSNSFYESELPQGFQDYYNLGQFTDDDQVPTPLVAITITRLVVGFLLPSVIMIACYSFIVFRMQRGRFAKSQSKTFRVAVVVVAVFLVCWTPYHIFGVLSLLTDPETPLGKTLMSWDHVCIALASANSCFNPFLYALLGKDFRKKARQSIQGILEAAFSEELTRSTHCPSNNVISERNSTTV
Put plainly: Intracellular Ca2+ release in human monocyte-derived macrophages (agonist mode). It counts as cell-based. On the set-up: Concentration-dependent Ca^2+ release in human monocyte-derived macrophages (HMDMs); endogenous in cells; host or cells: primary human monocyte-derived macrophages (HMDMs). The note with it: HMDMs, n ≥ 3, ± SEM. As for the experimental part: HMDMs were isolated using Ficoll-paque density centrifugation (GE Healthcare Bio-Science, Uppsala, Sweden) from buffy coat (of anonymous human donors) provided by the Australian Red Cross Blood Service, Brisbane. CD14^+ monocytes were positively selected using CD14 MicroBeads (Miltenyi Biotech, Auburn, USA)[40], [41]. CD14^+ monocytes were differentiated to HMDMs using 100 ng/mL of recombinant human macrophage colony-stimulating factor (PeptroTech, Rocky Hill, USA) for 7 days in Iscove’s modified Dulbecco’s media supplemented with 10% fetal bovine serum, penicillin (100 U/mL), streptomycin (100 µg/mL) and L-glutamine (2 mM). HMDMs were supplemented after 5 days with fresh medium containing 10 ng/ml macrophage colony-stimulating factor and collected by gentle scraping on day 7.
HMDMs were seeded to a 96-well clear-bottom black-wall assay plate at a density of 5 × 10^4 cells per well and allowed to adhere overnight. Prior to assay, cells were incubated with dye-loading buffer (Hank’s balance salt solution (HBSS) buffer, 4 μM Fluo-3 AM, 25 μl Pluronic acid F-127 and 1% fetal bovine serum) for 1 h at 37 °C. Cells were then washed once with assay buffer (HBSS supplemented with 2.5 mM probenecid and 20 mM HEPES, pH 7.4). Intracellular calcium release was monitored using a fluorescence imaging plate reader (excitation 495 nm, emission 520 nm). The percentage responses were plotted against logarithmic concentrations of each test compound[42].

In turn, `Cc1[nH]c(C(c2ccccc2)c2ccccc2)nc1C(=O)N[C@@H](CCCNC(=N)N)C(=O)O` [Compound 3] gave an EC50 of 22 ± 8 nM.
